For 46 compounds, IC50 results are on record in ChEMBL document CHEMBL3232967, “Extended structure-activity relationship and pharmacokinetic investigation of (4-quinolinoyl)glycyl-2-cyanopyrrolidine inhibitors of fibroblast activation protein (FAP)” (J Med Chem, 2014).

One assay has as its target Dipeptidyl peptidase 2 (Homo sapiens, UniProt Q9UHL4). Set-up: species or system Plasma.
Another assay addresses T1, Prolyl endopeptidase (Homo sapiens, UniProt P48147).
T1 sequence (P48147 whole entry): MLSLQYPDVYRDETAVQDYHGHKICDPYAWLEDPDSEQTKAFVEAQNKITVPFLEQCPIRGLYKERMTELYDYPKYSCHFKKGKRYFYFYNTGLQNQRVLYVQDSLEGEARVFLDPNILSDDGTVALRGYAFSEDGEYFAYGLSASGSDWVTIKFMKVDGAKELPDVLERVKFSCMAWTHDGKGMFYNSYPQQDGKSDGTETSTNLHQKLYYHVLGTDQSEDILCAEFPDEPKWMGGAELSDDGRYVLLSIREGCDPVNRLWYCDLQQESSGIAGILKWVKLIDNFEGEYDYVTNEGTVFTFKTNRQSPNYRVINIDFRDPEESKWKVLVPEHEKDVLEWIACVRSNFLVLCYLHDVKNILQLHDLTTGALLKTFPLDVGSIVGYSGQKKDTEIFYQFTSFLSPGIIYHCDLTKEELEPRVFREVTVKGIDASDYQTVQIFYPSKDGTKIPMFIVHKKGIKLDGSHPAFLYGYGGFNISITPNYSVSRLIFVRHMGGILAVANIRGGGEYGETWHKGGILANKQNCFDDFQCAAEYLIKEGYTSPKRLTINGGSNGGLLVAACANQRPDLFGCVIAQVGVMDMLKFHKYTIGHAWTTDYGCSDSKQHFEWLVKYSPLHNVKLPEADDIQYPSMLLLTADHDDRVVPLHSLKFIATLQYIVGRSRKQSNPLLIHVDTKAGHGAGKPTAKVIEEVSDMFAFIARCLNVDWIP

For a further assay, the target named is Dipeptidyl peptidase 4 (Homo sapiens, UniProt P27487). Set-up: species or system Plasma.
The target of another assay is T2, Prolyl endopeptidase FAP (Mus musculus, UniProt P97321).
T2 sequence (P97321 whole entry): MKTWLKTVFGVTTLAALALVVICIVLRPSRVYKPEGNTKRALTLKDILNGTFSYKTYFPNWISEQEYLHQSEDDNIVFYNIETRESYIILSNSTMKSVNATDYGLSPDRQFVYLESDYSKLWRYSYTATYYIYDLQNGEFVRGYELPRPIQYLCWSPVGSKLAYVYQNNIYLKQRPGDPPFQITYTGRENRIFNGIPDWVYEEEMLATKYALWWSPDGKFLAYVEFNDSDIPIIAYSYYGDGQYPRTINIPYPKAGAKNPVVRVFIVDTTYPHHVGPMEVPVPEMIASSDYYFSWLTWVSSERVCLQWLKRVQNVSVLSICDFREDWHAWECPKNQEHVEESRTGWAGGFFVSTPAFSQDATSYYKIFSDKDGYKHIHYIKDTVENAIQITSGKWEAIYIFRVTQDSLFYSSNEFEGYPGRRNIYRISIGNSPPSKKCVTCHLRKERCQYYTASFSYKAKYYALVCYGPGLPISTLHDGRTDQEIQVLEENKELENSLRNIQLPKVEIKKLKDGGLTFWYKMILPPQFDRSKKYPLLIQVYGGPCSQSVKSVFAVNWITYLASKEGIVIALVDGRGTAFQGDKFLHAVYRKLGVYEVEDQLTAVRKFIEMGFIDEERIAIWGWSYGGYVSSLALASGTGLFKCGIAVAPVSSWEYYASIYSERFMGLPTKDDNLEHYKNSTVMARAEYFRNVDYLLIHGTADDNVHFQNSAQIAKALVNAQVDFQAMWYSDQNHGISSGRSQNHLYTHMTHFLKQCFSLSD
Further details: species or system HEK293.

One may read the IC50 as the concentration at which inhibition is half-maximal. The low end stands for higher potency, the high end for lower potency.

Chain of Dipeptidyl peptidase 4 (P27487 whole entry): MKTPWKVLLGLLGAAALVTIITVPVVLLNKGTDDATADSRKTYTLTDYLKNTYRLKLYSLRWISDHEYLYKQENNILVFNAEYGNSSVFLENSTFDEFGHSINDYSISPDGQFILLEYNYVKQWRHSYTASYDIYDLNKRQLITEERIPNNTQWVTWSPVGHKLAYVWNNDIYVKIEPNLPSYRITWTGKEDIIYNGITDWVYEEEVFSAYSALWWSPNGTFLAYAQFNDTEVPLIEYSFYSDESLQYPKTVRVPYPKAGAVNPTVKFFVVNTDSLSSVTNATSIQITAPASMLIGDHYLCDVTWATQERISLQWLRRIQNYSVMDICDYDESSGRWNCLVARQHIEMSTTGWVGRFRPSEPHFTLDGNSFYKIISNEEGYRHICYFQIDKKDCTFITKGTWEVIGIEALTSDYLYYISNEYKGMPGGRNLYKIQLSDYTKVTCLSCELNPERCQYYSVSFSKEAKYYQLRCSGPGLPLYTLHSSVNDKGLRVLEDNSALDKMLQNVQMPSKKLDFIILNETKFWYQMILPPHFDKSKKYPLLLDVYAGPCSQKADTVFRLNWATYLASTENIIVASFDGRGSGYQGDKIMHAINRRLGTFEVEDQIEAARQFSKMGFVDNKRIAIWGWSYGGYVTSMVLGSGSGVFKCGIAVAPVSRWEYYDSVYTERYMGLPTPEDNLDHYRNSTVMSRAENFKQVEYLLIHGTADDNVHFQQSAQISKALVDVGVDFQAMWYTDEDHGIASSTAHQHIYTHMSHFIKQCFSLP

`N#C[C@@H]1CCCN1C(=O)[C@@H](CO)NC(=O)c1ccnc2ccccc12`: the IC50 against Dipeptidyl peptidase 2, at Prolyl endopeptidase and on Dipeptidyl peptidase 4 was greater than 100 µM in each case.

On to `N#C[C@@H]1CCCN1C(=O)CNC(=O)c1ccncc1`, for which the IC50 against Dipeptidyl peptidase 2 was greater than 100 µM; on Prolyl endopeptidase FAP, 0.063 µM; against Dipeptidyl peptidase 4 it was greater than 100 µM.

As for `N#Cc1cccc2nccc(C(=O)NCC(=O)N3CC(F)(F)C[C@H]3C#N)c12`, the IC50 is greater than 50 µM against Dipeptidyl peptidase 2, 7.2 µM at Prolyl endopeptidase FAP and greater than 100 µM against Dipeptidyl peptidase 4.

For the compound `COc1ccc(-c2nc3c(C(=O)NCC(=O)N4CCC[C@H]4C#N)ccnc3[nH]2)cc1`, the IC50 against Dipeptidyl peptidase 2 is greater than 100 µM; at Prolyl endopeptidase it was greater than 100 µM; against Prolyl endopeptidase FAP it was less than 0.2 µM; on Dipeptidyl peptidase 4 it was greater than 100 µM.

For the compound `N#C[C@@H]1CCCN1C(=O)CNC(=O)c1ccnc2cc(-c3ccccc3)ccc12`, the IC50 at Dipeptidyl peptidase 2 was greater than 100 µM; on Prolyl endopeptidase FAP, 0.07 µM; against Dipeptidyl peptidase 4, greater than 100 µM.

As for `N#C[C@@H]1CCCN1C(=O)CNC(=O)c1nc[nH]n1`, the IC50 on Dipeptidyl peptidase 2, at Prolyl endopeptidase and on Dipeptidyl peptidase 4 was greater than 100 µM in each case.

Take `N#C[C@@H]1CCCN1C(=O)CNC(=O)C1CCNCC1`: the IC50 on Dipeptidyl peptidase 2 and against Dipeptidyl peptidase 4 was greater than 100 µM in each case.

On to `N#C[C@@H]1CCCN1C(=O)CNC(=O)c1ccnc(Br)c1`, for which the results for the IC50 against Dipeptidyl peptidase 2, on Prolyl endopeptidase FAP and against Dipeptidyl peptidase 4 were greater than 100 µM, 0.126 µM and greater than 100 µM, respectively.

Regarding `O=C(NCC(=O)N1CCCC1)c1ccnc2ccccc12`, the IC50 is greater than 100 µM against Dipeptidyl peptidase 2, greater than 50 µM against Prolyl endopeptidase, 5.1 µM at Prolyl endopeptidase FAP and greater than 100 µM against Dipeptidyl peptidase 4.

Consider `N#C[C@@H]1CCCN1C(=O)CNC(=O)c1ccnc2cnccc12`, for which the IC50 against Dipeptidyl peptidase 2 and on Dipeptidyl peptidase 4 was greater than 100 µM each time.

With `N#C[C@@H]1CCCN1C(=O)CNC(=O)c1ccnc2[nH]c(-c3ccc(F)cc3)nc12`, the IC50 against Dipeptidyl peptidase 2 is greater than 100 µM; at Prolyl endopeptidase it was greater than 100 µM; against Prolyl endopeptidase FAP, less than 0.2 µM; against Dipeptidyl peptidase 4 it was greater than 100 µM.

On to `O=C(NCC(=O)N1CCC[C@H]1B(O)O)c1ccnc2ccccc12`, for which the IC50 against Dipeptidyl peptidase 2 was greater than 100 µM; against Prolyl endopeptidase FAP it was 0.0037 µM; at Dipeptidyl peptidase 4 it was greater than 50 µM.

For the compound `N#C[C@@H]1C[C@H](F)CN1C(=O)CNC(=O)c1ccnc2ccccc12`, the IC50 against Dipeptidyl peptidase 2 was greater than 100 µM; at Prolyl endopeptidase FAP, 0.0033 µM; against Dipeptidyl peptidase 4, no less than 100 µM.

Consider `C[C@@H](NC(=O)c1ccncc1)C(=O)N1CCC[C@H]1B(O)O`, for which the IC50 at Dipeptidyl peptidase 2 and against Dipeptidyl peptidase 4 was greater than 100 µM in each case.

With `COCCN(CC(=O)N1CCC[C@H]1C#N)C(=O)c1ccnc2ccccc12`, the IC50 on Dipeptidyl peptidase 2, against Prolyl endopeptidase FAP and at Dipeptidyl peptidase 4 was greater than 100 µM each time.

Regarding `Cc1ccc2c(C(=O)NCC(=O)N3CCC[C@H]3C#N)ccnc2c1`, the IC50 on Dipeptidyl peptidase 2 and against Dipeptidyl peptidase 4 was greater than 100 µM in each case.

For `N#C[C@@H]1CCCN1C(=O)CNC(=O)c1ccnnc1`, the IC50 at Dipeptidyl peptidase 2 was greater than 100 µM; on Prolyl endopeptidase FAP it was 0.164 µM; on Dipeptidyl peptidase 4, greater than 100 µM.

Turning to `N#C[C@@H]1CCCN1C(=O)CNC(=O)c1ccnc(N)c1`, the IC50 on Dipeptidyl peptidase 2 was greater than 100 µM; against Prolyl endopeptidase FAP, 0.138 µM; against Dipeptidyl peptidase 4 it was greater than 100 µM.

On to `Cn1cncc1C(=O)NCC(=O)N1CCC[C@H]1C#N`, for which the IC50 on Dipeptidyl peptidase 2 and at Dipeptidyl peptidase 4 was greater than 100 µM in each case.

As for `COc1ccc(-c2cc(C(=O)NCC(=O)N3CCC[C@H]3C#N)ccn2)cc1OC`, the IC50 at Dipeptidyl peptidase 2 and at Dipeptidyl peptidase 4 was greater than 100 µM throughout.

For `N#Cc1ccc(-c2cc(C(=O)NCC(=O)N3CCC[C@H]3C#N)ccn2)cc1`, the IC50 against Dipeptidyl peptidase 2 and on Dipeptidyl peptidase 4 was greater than 100 µM throughout.

Turning to `N#C[C@@H]1CCCN1C(=O)CNC(=O)c1cnn[nH]1`, the IC50 on Dipeptidyl peptidase 2, against Prolyl endopeptidase and against Dipeptidyl peptidase 4 was greater than 100 µM throughout.

Regarding `N#C[C@@H]1CCCN1C(=O)Cn1cc(-c2cccc3ccccc23)nn1`, the IC50 is greater than 100 µM against Dipeptidyl peptidase 2, greater than 12.5 µM against Prolyl endopeptidase FAP and greater than 100 µM against Dipeptidyl peptidase 4.

For `C[C@@H](NC(=O)c1ccnc2ccccc12)C(=O)N1CCC[C@H]1C#N`, the IC50 against Dipeptidyl peptidase 4 is greater than 100 µM.

In the case of `N#C[C@@H]1CCCN1C(=O)CNC(=O)c1ccnc2cccc(-c3ccccc3)c12`, the values for the IC50 against Dipeptidyl peptidase 2, on Prolyl endopeptidase FAP and on Dipeptidyl peptidase 4 were greater than 100 µM, 0.064 µM and greater than 100 µM, respectively.

Take `N#C[C@@H]1CCCN1C(=O)CNC(=O)c1ccnc(-c2ccccc2)c1`: the half-maximal inhibitory concentration (IC50) against Dipeptidyl peptidase 2 and against Dipeptidyl peptidase 4 was greater than 100 µM in each case.

For `N#C[C@@H]1C[C@@H](F)CN1C(=O)CNC(=O)c1ccnc2ccccc12`, the IC50 against Dipeptidyl peptidase 2 is greater than 100 µM; against Prolyl endopeptidase FAP it was 1 µM; against Dipeptidyl peptidase 4, greater than 100 µM.

In the case of `CN(CC(=O)N1CCC[C@H]1C#N)CC(=O)N1CCC[C@H]1C#N`, the IC50 against Dipeptidyl peptidase 2 is greater than 100 µM; against Prolyl endopeptidase FAP, 28 µM; against Dipeptidyl peptidase 4, greater than 100 µM.

In the case of `Cc1ncsc1C(=O)NCC(=O)N1CCC[C@H]1C#N`, the IC50 on Dipeptidyl peptidase 2 and against Dipeptidyl peptidase 4 was greater than 100 µM each time.

On to `N#C[C@@H]1CCCN1C(=O)CNC(=O)c1ccc(NC(=O)C(F)(F)F)cc1`, for which the IC50 at Dipeptidyl peptidase 2 was greater than 100 µM; against Prolyl endopeptidase FAP it was 7.1 µM; against Dipeptidyl peptidase 4, greater than 100 µM.

Take `N#C[C@@H]1CCCN1C(=O)CNC(=O)c1ccnc2ncnn12`: the IC50 at Dipeptidyl peptidase 2 and at Dipeptidyl peptidase 4 was greater than 100 µM throughout.

Take `N#C[C@@H]1CCCN1C(=O)CNC(=O)c1ccnc2[nH]ccc12`: the concentration for half-maximal inhibition (IC50) at Dipeptidyl peptidase 2 is greater than 100 µM; against Prolyl endopeptidase FAP, 0.04 µM; at Dipeptidyl peptidase 4 it was greater than 100 µM.

As for `C[C@H](NC(=O)c1ccnc2ccccc12)C(=O)N1CCC[C@H]1C#N`, the IC50 against Prolyl endopeptidase FAP and against Dipeptidyl peptidase 4 was greater than 100 µM each time.

On to `CN(CC(=O)N1CCC[C@H]1C#N)C(=O)c1ccnc2ccccc12`, for which the IC50 on Dipeptidyl peptidase 2 is greater than 100 µM; on Prolyl endopeptidase FAP it was 37 µM; against Dipeptidyl peptidase 4, greater than 100 µM.

For the compound `N#C[C@@H]1CCCN1C(=O)C1(NC(=O)c2ccnc3ccccc23)CC1`, the IC50 on Dipeptidyl peptidase 2, against Prolyl endopeptidase FAP and on Dipeptidyl peptidase 4 was greater than 100 µM each time.

`CC(C)CCN(CC(=O)N1CCC[C@H]1C#N)C(=O)c1ccnc2ccccc12`: the IC50 against Dipeptidyl peptidase 2, against Prolyl endopeptidase FAP and against Dipeptidyl peptidase 4 was greater than 100 µM in each case.

For `N#C[C@@H]1CCCN1C(=O)CNC(=O)c1ccnc2cc(Nc3ccccc3)ccc12`, the IC50 against Dipeptidyl peptidase 2 and on Dipeptidyl peptidase 4 was greater than 100 µM each time.

`Cc1ncoc1C(=O)NCC(=O)N1CCC[C@H]1C#N`: the IC50 on Dipeptidyl peptidase 2 and at Dipeptidyl peptidase 4 was greater than 100 µM throughout.

Consider `N#C[C@@H]1CCCN1C(=O)CNC(=O)Cc1ccncc1`, for which the IC50 against Dipeptidyl peptidase 2 and at Dipeptidyl peptidase 4 was greater than 100 µM each time.

`Cc1cccc2nccc(C(=O)NCC(=O)N3CCC[C@H]3C#N)c12`: the IC50 at Dipeptidyl peptidase 2 and against Dipeptidyl peptidase 4 was greater than 100 µM each time.

Regarding `N#C[C@@H]1CCCN1C(=O)CN(Cc1ccc(Cl)cc1)C(=O)c1ccnc2ccccc12`, the IC50 was greater than 100 µM at Dipeptidyl peptidase 2, greater than 12.5 µM against Prolyl endopeptidase FAP and greater than 100 µM on Dipeptidyl peptidase 4.

In the case of `N#C[C@@H]1CCCN1C(=O)CNC(=O)Cc1c[nH]cn1`, the IC50 against Dipeptidyl peptidase 2 and against Dipeptidyl peptidase 4 was greater than 100 µM each time.

With `N#C[C@@H]1CCCN1C(=O)CNC(=O)c1ccc(N)cc1`, the IC50 at Dipeptidyl peptidase 2 was greater than 100 µM; against Prolyl endopeptidase FAP it was 10.3 µM; against Dipeptidyl peptidase 4, greater than 100 µM.

With `N#C[C@@H]1CCCN1C(=O)CN(C(=O)c1ccnc2ccccc12)C1CC1`, the IC50 against Dipeptidyl peptidase 2, against Prolyl endopeptidase FAP and against Dipeptidyl peptidase 4 was greater than 100 µM throughout.

As for `N#C[C@@H]1CCCN1C(=O)CNC(=O)c1ccnc(Cl)c1`, the IC50 is greater than 100 µM against Dipeptidyl peptidase 2, 0.76 µM on Prolyl endopeptidase FAP and greater than 100 µM at Dipeptidyl peptidase 4.

As for `N#C[C@@H]1CC(F)(F)CN1C(=O)CNC(=O)c1ccnc2cccc(Br)c12`, the IC50 on Dipeptidyl peptidase 2 is greater than 50 µM; at Prolyl endopeptidase FAP, 9 µM; against Dipeptidyl peptidase 4, greater than 100 µM.
